Test results: patent US20120122840A1, “COMPOUNDS AND THERAPEUTIC USES THEREOF” (Myrexis, Inc., priority 2009, published 2012)
Peptide text beside a SMILES is read from it. * marks the point of attachment. Cbz = O=C(OCc1ccccc1)*; CH2F = FC*

Assays:
[1] = tested on: p53 on serine 15 and H2AX on serine 139; assay: Effect of ATM, ATM/ATR and DNA-PK inhibitors on Compound A-induced phosphorylation in HCT-116 cells; type: cell-based; details: 5 μM inhibitor with 1 μM Compound A
Procedure: Phosphorylation of either p53 on serine 15 or H2AX on serine 139 is often mediated by the DNA damage checkpoint proteins, ATM or ATR. […] As a positive control, cells were treated with the UV mimetic 4-NQO (5 μM). Cell lysates were analyzed by Western blot with anti-p53, anti-p53-pS15, anti-H2AX-pS139 and anti-GAPDH antibodies (see FIGS. 6A-6C). […] Phosphorylation of p53 on serine 15 and H2AX on serine 139 appears mediated by ATR kinase in response to TTK inhibition.

HeLa cells = assay: Cell cycle progression after double thymidine block (propidium iodide, flow cytometry); type: cell-based; details: VX-680 at 500 nM
Procedure: HeLa cells were synchronized in the G1 phase of the cell cycle using a double thymidine block. The cells were released from the block by removing the media and replacing it with media containing DMSO, 500 nM VX-680 (Aurora inhibitor), or a TTK inhibitor. At the indicated time points, cells were fixed with methanol, permeabilized and stained with propidium iodide. DNA content was analyzed using a Guava EasyCyte flow cytometer.
This is due to improper spindle formation and chromosome segregation followed by failed cytokinesis. Previously, it has been shown that inhibition of TTK using siRNA results in chromosome missegregation and mitotic defects. Using TTK inhibitors of the present invention, defects in chromosome segregation were observed. Therefore, the effect of the TTK inhibitors of the present invention were analyzed for their effect on cell cycle progression and/or DNA content.

Aurora A [2] = biological target: T1, Aurora A (Homo sapiens, UniProt O14965); assay: Direct target affinity purification (DTAP) from cell lysates; type: binding; details: compound coupled to Sepharose beads
T1 sequence (O14965 1-403): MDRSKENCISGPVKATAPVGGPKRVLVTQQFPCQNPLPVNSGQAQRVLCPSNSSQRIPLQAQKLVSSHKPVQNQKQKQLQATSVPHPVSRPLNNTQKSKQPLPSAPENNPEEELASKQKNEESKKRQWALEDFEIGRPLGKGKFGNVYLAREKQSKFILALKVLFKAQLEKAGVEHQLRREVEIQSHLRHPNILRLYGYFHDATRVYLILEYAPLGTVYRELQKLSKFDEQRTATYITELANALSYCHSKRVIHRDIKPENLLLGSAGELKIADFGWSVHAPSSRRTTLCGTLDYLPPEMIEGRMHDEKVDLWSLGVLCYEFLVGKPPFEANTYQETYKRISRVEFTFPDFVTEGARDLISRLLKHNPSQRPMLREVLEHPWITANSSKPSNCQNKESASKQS
Excerpt: (§1) Direct target affinity purification (DTAP) was used to investigate (1) the selectivity of compounds of the invention for TTK, relative to other kinases, and (2) the importance of a specific methyl substituent in providing that selectivity.
(§2) In preparation for DTAP studies, the two compounds depicted above were synthesized with an alkyl-amine linker to allow covalent coupling to epoxy-activated Sepharose 6B beads (GE Healthcare, Piscataway, N.J.). Sepharose beads were swollen and washed with water for 30 min followed by equilibration in coupling buffer (50% dimethylformamide, 50 mM Na2CO3). Beads were pelleted by centrifugation (15 sec at 2000×g) and the supernatant removed by aspiration. An equal volume of coupling buffer containing the linkered test compound was used to resuspend the beads. Compound concentrations in the coupling reaction ranged from 0.1 mM to 12.5 mM. The coupling reactions were incubated at 34° C. for 18 hrs on a rotator mixer. Ethanolamine was added to 1 M for the final 1 hr to quench the coupling reaction. Beads were washed extensively with binding buffer (1 M NaCl, 50 mM Hepes [pH 7.4], 1% Triton X-100, 1 mM EDTA and 1 mM dithiothreitol) to remove residual coupling reagents, and were then stored at 4° C.
(§3) Cellular proteins were prepared by mild sonication in lysis buffer (150 mM NaCl, 50 mM Hepes [pH 7.4], 1% Triton X-100, 1 mM EDTA and 2 mM dithiothrietol containing 1× Halt™ protease and phosphatase inhibitor cocktail [Thermo Fisher Scientific, Rockford, Ill.]). Lysates were centrifuged (20,000×g for 20 min) to remove debris, diluted to a protein concentration of ˜5 mg/ml, divided into aliquots, and stored at −80° C.
(§4) For DTAP reactions, cell lysates (˜0.5 ml per binding reaction) were thawed and the NaCl concentration adjusted to 1 M. Competitor compounds dissolved in DMSO (or a DMSO control) were then added to the lysate and incubated on ice for 5 min. The lysates were centrifuged at 20,000×g for 10 min and the cleared supernatant was transferred to a tube containing 50 μl of coupled beads. The binding reactions were incubated on a rotator mixer at 4° C. for 2 hrs, after which the beads were pelleted by centrifugation and the supernatant removed by aspiration. The beads were washed three times with 20 volumes of binding buffer, 2× with 20 volumes wash buffer (150 mM NaCl, 50 mM Hepes [pH 7.4], 1% Tween 20, 1 mM EDTA, 2 mM dithiothrietol) and finally twice with 10 volumes of 150 mM NaCl, 50 mM Hepes [pH 7.4].
(§5) During the final wash, an aliquot containing 10 μl of beads was transferred to a separate tube and resuspended with 15 μl of 2× SDS/PAGE loading buffer (Invitrogen Corporation, Carlsbad, Calif.) for 5 min at 90° C. The eluted proteins were resolved by electrophoresis on a NuPage 4-12% Bis-Tris Gel (Invitrogen Corporation, Carlsbad, Calif.) and visualized by staining with Ruby Red (Invitrogen Corporation, Carlsbad, Calif.). The remaining beads (40 μl) were processed for analysis by mass spectrometry.

FER [3] = biological target: T2, FER (Homo sapiens, UniProt P16591); assay: as above; type: binding; details: compound coupled to Sepharose beads
Excerpt: as §1, §2, §3, §4, §5

JAK1 [4] = biological target: T3, JAK1 (Homo sapiens, UniProt P23458); assay: as above; type: binding; details: compound coupled to Sepharose beads
T3 construct: Cellular proteins were prepared by mild sonication in lysis buffer; endogenous in cells
Excerpt: as §1, §2, §3, §4, §5

JNK [5] = biological target: T4, JNK (Homo sapiens, UniProt P45983); assay: as above; type: binding; details: compound coupled to Sepharose beads
Excerpt: as §1, §2, §3, §4, §5

Aurora A [6] = biological target: T1, Aurora A; assay: In vitro binding assays
FER [7] = biological target: T2, FER; assay: In vitro binding assays
JNK [8] = biological target: T4, JNK; assay: In vitro binding assays
JAK1 [9] = biological target: T3, JAK1; assay: In vitro binding assays
TTK = biological target: T5, TTK (Homo sapiens, UniProt P33981); assay: TTK inhibition assay ([γ-33P]ATP transfer to phosphorylated MBP); type: biochemical; parameters: A. Recombinant TTK enzyme; details: read-out: inhibition of the protein kinase activity of TTK, IC50
T5 sequence (P33981 1-857): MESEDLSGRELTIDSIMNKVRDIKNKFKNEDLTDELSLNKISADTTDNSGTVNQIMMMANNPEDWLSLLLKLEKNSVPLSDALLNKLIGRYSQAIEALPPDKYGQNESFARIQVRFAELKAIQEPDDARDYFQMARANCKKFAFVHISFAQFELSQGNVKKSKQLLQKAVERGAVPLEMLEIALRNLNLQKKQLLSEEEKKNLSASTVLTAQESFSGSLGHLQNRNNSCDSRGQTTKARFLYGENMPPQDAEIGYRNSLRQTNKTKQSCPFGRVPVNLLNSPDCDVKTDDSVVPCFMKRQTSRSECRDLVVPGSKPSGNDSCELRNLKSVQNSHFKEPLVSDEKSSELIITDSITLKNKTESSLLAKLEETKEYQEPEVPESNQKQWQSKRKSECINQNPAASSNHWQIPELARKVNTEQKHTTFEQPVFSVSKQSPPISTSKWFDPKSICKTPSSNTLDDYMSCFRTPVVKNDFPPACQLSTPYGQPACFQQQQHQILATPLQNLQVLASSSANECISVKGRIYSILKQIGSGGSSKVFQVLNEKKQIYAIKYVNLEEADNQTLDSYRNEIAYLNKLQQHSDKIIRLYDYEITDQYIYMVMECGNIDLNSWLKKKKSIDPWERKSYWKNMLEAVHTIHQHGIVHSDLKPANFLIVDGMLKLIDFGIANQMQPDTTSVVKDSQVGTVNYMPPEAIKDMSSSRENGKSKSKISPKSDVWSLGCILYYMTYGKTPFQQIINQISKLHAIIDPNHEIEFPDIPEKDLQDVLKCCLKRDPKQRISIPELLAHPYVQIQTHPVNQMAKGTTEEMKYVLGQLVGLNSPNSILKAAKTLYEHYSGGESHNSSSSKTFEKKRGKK
Procedure: The compounds of the invention were also tested in the following assay to determine TTK-inhibitory activity. This assay measures transfer of radioactive phosphate from ATP to a protein substrate in the presence or absence of a test compound.
MATERIALS: • A. Recombinant TTK enzyme; • B. Phosphorylated myelin basic protein (MBP); • C. [γ-^33P]ATP: 1 mCi/100 μL; • D. Positive Control: a proprietary compound known to have […] in this assay.
Final concentrations of reaction mixture components (50 μl total volume): 50 mM Tris-HCl, pH 7.5; 0.01% Triton X-100; 10 mM MgCl2; 25 ng TTK (˜4 nM); 5 μM Phosphorylated MBP; 40 μM ATP (1 μCi/well, adjusted ATP specific activity according to strength of radiolabeled ATP).
Mixes were assembled in the wells of a 96-well polypropylene plate as follows: 1 μL 50× compound to be tested; 39 μL 1.282× Reaction Mix; 10 μL 5×ATP Mix.
The following reaction/assay steps were then performed: • 1. Mix thoroughly and incubate at room temperature for 45 minutes; • 2. Add 70 μL/well, except in background wells, of 3% phosphoric acid to terminate reaction, and transfer 100 μL to P81 filter plate; • 3. Wash with 1% phosphoric acid, then dry the P81 filter plate completely; • 4. Add 100 μL/well MicroSint-20 (PerkinElmer #6013621) and seal; • 5.

HCT-116 cells = assay: Effect of caspase inhibition on Compound A responses in HCT-116 cells; type: cell-based
Procedure: Caspase 3/7 activity was determined with a Caspase-Glo 3/7 assay (see FIG. 7A). Cell lysates were analyzed by Western blot with antibodies specific for H2AX-pS139, p53-pS15, p53 or GAPDH (see FIG. 7B).

T3 sequence (P23458 whole entry, species assumed): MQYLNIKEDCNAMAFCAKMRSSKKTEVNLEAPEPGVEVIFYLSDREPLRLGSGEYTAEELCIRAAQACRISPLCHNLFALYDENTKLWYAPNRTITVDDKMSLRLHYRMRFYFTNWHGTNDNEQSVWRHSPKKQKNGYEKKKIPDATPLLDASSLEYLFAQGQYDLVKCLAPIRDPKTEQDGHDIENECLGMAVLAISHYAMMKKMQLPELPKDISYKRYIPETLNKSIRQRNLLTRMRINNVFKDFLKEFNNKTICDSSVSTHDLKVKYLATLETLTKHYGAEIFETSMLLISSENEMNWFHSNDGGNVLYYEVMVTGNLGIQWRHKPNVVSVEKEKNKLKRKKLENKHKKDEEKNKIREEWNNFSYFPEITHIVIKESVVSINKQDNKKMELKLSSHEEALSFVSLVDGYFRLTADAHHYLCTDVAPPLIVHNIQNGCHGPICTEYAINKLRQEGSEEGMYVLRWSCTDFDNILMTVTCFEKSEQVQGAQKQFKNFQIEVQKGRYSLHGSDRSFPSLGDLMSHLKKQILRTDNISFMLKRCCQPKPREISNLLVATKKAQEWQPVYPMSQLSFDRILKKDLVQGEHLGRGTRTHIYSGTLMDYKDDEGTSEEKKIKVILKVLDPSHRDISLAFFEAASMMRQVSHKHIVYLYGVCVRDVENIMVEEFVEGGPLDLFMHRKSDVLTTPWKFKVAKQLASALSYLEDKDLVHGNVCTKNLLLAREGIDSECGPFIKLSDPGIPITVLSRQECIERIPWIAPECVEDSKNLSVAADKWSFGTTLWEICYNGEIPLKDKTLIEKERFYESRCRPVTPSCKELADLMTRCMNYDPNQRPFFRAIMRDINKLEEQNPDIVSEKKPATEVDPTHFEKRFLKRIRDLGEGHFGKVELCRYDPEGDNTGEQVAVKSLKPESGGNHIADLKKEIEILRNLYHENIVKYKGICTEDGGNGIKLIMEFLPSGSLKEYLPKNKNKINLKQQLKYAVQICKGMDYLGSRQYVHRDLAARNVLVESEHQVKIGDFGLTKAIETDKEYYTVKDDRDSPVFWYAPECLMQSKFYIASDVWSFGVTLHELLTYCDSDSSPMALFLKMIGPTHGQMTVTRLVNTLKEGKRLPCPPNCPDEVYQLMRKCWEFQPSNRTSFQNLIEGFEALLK
T4 sequence (P45983 whole entry): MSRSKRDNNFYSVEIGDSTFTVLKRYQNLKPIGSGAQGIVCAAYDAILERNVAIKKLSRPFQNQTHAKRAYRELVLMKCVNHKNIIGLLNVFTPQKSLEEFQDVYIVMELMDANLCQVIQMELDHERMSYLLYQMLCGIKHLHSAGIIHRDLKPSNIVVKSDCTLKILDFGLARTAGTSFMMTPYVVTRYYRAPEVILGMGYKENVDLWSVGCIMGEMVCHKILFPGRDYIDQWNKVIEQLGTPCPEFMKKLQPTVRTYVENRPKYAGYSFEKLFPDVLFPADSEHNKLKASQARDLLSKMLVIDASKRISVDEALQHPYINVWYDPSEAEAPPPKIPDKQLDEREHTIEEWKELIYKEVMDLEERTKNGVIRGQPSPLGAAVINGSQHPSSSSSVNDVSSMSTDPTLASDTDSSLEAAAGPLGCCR
T2 sequence (P16591 whole entry, species assumed): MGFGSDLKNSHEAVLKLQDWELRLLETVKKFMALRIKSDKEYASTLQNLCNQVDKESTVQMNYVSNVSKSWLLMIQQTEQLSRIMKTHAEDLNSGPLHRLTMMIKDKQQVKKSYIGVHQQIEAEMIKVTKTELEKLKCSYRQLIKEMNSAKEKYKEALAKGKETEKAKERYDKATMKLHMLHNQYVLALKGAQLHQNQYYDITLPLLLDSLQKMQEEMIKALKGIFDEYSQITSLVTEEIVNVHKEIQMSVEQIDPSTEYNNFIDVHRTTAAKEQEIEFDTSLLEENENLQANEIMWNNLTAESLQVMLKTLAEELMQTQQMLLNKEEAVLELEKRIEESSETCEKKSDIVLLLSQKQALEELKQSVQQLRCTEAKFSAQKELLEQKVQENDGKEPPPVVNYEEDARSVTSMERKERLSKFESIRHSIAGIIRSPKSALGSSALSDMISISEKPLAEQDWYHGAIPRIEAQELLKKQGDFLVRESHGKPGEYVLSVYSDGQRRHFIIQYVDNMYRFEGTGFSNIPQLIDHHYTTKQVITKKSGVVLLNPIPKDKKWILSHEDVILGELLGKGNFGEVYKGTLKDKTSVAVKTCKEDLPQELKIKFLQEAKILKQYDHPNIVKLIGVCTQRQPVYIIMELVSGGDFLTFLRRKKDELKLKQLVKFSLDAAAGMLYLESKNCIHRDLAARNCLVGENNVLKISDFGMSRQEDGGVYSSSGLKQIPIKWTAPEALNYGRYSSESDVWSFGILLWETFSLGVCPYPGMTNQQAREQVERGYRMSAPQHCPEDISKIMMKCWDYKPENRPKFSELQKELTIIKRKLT

Question: Which “effect on p53 (and H2AX) phosphorylation in response to Compound A” value [1] does the source give for `O=C(NC(NC(=S)Nc1ccc(F)c([N+](=O)[O-])c1)C(Cl)(Cl)Cl)C(c1ccccc1)c1ccccc1` (centres unmarked) [CGK733] here?
Answer: blocked p53 and H2AX phosphorylation

Question: For `O=c1cc(-c2cccc3c2Sc2ccccc2S3)oc(N2CCOCC2)c1` [KU-55933], which “effect on p53 (and H2AX) phosphorylation in response to Compound A” value [1] is on record?
Answer: had no effect

Question: For `Cc1cc(Nc2cc(N3CCN(C)CC3)nc(Sc3ccc(NC(=O)C4CC4)cc3)n2)n[nH]1` [VX-680], which “DNA content / cell cycle progression after release from G1 block” value (HeLa cells) is on record?
Answer: causes cells to become tetraploid

Question: With `Cc1cc(OCCCN)ccc1Nc1nc(NC2CCCCC2)c2nc[nH]c2n1` [N2-(4-(3-Aminopropoxy)-2-methylphenyl)-N6-cyclohexyl-9H-purine-2,6-diamine] as the compound, how does the “binding of Aurora A from cell lysates to bead-coupled compound” value (Aurora A [2]) read?
Answer: failed to bind

Question: And the “binding of FER from cell lysates to bead-coupled compound” value (FER [3])?
Answer: reduced affinity

Question: What about the “binding of JAK1 from cell lysates to bead-coupled compound” value (JAK1 [4]) of the same compound?
Answer: reduced affinity

Question: What about the “binding of JNK from cell lysates to bead-coupled compound” value (JNK [5]) of the same compound?
Answer: reduced affinity

Question: And the IC50 (Aurora A [6])?
Answer: > 5000 nM

Question: And the IC50 (FER [7])?
Answer: 380 nM

Question: And the IC50 (JNK [8])?
Answer: 120 nM

Question: What about the IC50 (JAK1 [9]) of the same compound?
Answer: > 5000 nM

Question: And the IC50 (TTK)?
Answer: 3 nM

Question: How did the “effect on TTK inhibitor-induced H2AX phosphorylation” value (HCT-116 cells; 100 μM Z-VAD-FMK 1 hour before 1 μM Compound A, 48 hours) turn out when `COC(=O)C[C@H](NC(=O)[C@H](C)NC(=O)[C@@H](NC(=O)OCc1ccccc1)C(C)C)C(=O)CF` [Z-VAD-FMK] (Cbz-Val-Ala-Asp(OMe)-CH2F) was run?
Answer: prevents TTK inhibitor-induced H2AX phosphorylation

Question: What about the “effect on TTK inhibitor-induced p53 phosphorylation and on cell viability” value (HCT-116 cells; 100 μM Z-VAD-FMK pre-treatment, viability after 72 hours (Cell Titer-Glo)) of the same compound?
Answer: has no effect on either p53 phosphorylation or cell viability
